Data as given in patent EP3057951B1, “METHYLENE LINKED QUINOLINYL MODULATORS OF ROR-GAMMA-T” (Janssen Pharmaceutica NV, priority 2013, dated 2015).
Where a name gives a salt, the structure may show the parent alone.

Assays:
[1] = target: T1, wild type human RORγt LBD (Homo sapiens, UniProt P51449); assay: RORγt (LBD) Reporter Assay (GAL4-luciferase, HEK293T cells); type: cell-based; settings: for RORγt (LBD) Reporter Assay, % inhibition @ 6 µM: 6 µM compound concentration; for inhibition at 6 µM: HEK-293T, read-out: RORγt (LBD) Reporter Assay, % inhibition @ 6 µM, 6 µM compound concentration
T1 construct: expressed in transfected cells; host or cells: HEK293T
T1 sequence (P51449 258-518): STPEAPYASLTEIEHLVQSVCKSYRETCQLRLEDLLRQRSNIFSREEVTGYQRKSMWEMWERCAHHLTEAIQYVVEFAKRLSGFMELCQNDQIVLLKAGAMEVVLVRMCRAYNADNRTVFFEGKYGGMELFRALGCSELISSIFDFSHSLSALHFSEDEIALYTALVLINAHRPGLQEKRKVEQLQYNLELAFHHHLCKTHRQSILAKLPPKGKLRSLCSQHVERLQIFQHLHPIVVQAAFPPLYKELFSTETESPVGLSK

[2] = target: T2, wild type human RORγt ligand binding domain (RORyt LBD) (Homo sapiens, UniProt P51449); assay: RORγt ThermoFluor assay (thermal shift, binding affinity KD)
T2 construct: His-tag (N); TurboTEV protease cleavage site (ENLYFQG) (N); made in house; host or cells: E. coli (pHIS1, modified pET vector)
T2 sequence (P51449 258-518): T1 sequence (P51449 258-518)

[3] = HEK293T cells, value after the comma with ∼, > or < could not be included in the average

Row | SMILES | RORγt (LBD) Reporter Assay, % inhibition @ 6 µM ([1]; HEK293T cells) | IC50 ([1]; HEK293T cells) | Kd [2] | IC50 [1, 3] | inhibition at 6 µM [1] | RORγt (LBD) Reporter Assay, % inhibition @ 6 µM [1]
1 | Cc1ccc(C(O)(c2ccc3nc(NC4CC4)c(Cc4ccc(C(F)(F)F)cc4)c(Cl)c3c2)c2cnnn2C)c(C)n1 (single isomer, unassigned) [Example 143c, {4-Chloro-2-(cyclopropylamino)-3-[4-(trifluoromethyl)benzyl]quinolin-6-yl}(2,6-dimethylpyridin-3-yl)(1-methyl-1H-1,2,3-triazol-5-yl)methanol] | 102% | ~10 nM | 2.2 nM | – | – | –
2 | CC(=O)N1CCC(C(O)(c2ccc(C(F)(F)F)nc2)c2cc(C)c3nc(C#N)c(Cc4ccc(-n5cccn5)cc4)c(C#N)c3c2)CC1 (single isomer, unassigned) [Example 79b, 3-(4-(1H-Pyrazol-1-yl)benzyl)-6-((1-acetylpiperidin-4-yl)(hydroxy)(6(trifluoromethyl)pyridin-3-yl)methyl)-8-methylquinoline-2,4-dicarbonitrile] | – | – | 580 nM | 760 nM | 92% | –
3 | COc1nc2ccc(C(O)(c3ccc(C#N)cc3)c3cncn3C)cc2c(Cl)c1Cc1ccc(-n2cncn2)cc1 (single isomer, unassigned) [Example 14c, 4-((3-(4-(1H-1,2,4-Triazol-1-yl)benzyl)-4-chloro-2-methoxyquinolin-6-yl)(hydroxy)(1-methyl-1H-imidazol-5-yl)methyl)benzonitrile] | – | – | 5.5 nM | 24 nM | – | 106%
4 | Cn1cc(-c2nc3ccc(C(O)(c4ccc(C(F)(F)F)nc4)c4cncn4C)cc3c(C#N)c2Cc2ccccc2)cn1 (single isomer, unassigned) [Example 112b, 3-Benzyl-6-(hydroxy(1-methyl-1H-imidazol-5-yl)(6-(trifluoromethyl)pyridin-3-yl)methyl)-2-(1-methyl-1H-pyrazol-4-yl)quinoline-4-carbonitrile] | – | – | 2200 nM | 450 nM | – | 92%
5 | COc1nc2ccc(C(N)(c3ccc(C(F)(F)F)nc3)c3cncn3C)cc2c(Cl)c1Cc1cc2ccccc2s1 (racemic) [Example 71a, (3-(Benzo[b]thiophen-2-ylmethyl)4-chloro-2-methoxyquinolin-6-yl)(1-methyl-1H-imidazol-5-yl)(6-(trifluoromethyl)pyridin-3-yl)methanamine] | – | – | 61 nM | 210 nM | 98% | –
6 | COc1nc2ccc(C(O)(c3ccc(C)nc3C)c3cnnn3C)cc2c(Cl)c1Cc1ccc(C)cc1 (stereo not drawn) [Example 20a, (4-Chloro-2-methoxy-3-(4-methylbenzyl)quinolin-6-yl)(2,6-dimethylpyridin-3-yl)(1-methyl-1H-1,2,3-triazol-5-yl)methanol] | – | – | 1.1 nM | 40 nM | 91% | –
7 | COc1nc2ccc(C(O)(c3cnnn3C)C3CCOCC3)cc2c(Cl)c1Cc1ccc(C(F)(F)F)cc1 (single isomer, unassigned) [Example 85b, (4-Chloro-2-methoxy-3-(4-(trifluoromethyl)benzyl)quinolin-6-yl)(1-methyl-1H-1,2,3-triazol-5-yl)(tetrahydro-2H-pyran-4-yl)methanol] | – | – | 0.31 nM | 1.3 nM | 99% | –
8 | COc1nc2ccc(C(O)(c3cccnc3)c3cccc(F)c3)cc2c(Cl)c1Cc1ccc(-n2cccn2)cc1 (stereo not drawn) [Example 61, (3-(4-(1H-Pyrazol-1-yl)benzyl)4-chloro-2-methoxyquinolin-6-yl)(3-fluorophenyl)(pyridin-3-yl)methanol] | – | – | 12 nM | 83 nM | 99% | –
9 | Cc1ccc(C(O)(c2ccc3nc(N4CCC4)c(Cc4ccc(-n5cccn5)cc4)c(Cl)c3c2)c2cnnn2C)c(C)n1 (single isomer, unassigned) [Example 141c, {2-Azetidin-1-yl-4-chloro-3-[4-(1H-pyrazol-1-yl)benzyl]quinolin-6-yl}(2,6-dimethylpyridin-3-yl)(1-methyl-1H-1,2,3-triazol-5-yl)methanol] | 5% | > 6000 nM | 7100 nM | – | – | –
10 | COc1nc2ccc(C(O)(c3ccccc3)C3CCN(C(C)=O)CC3)cc2c(Cl)c1Cc1ccc(-n2ccnc2)cc1 (stereo not drawn) [Example 16b] | – | – | 33 nM | 91 nM | – | 96%
11 | COc1nc2ccc(C(O)(c3ccc(C)nc3C)c3cnnn3C)cc2c(Cl)c1Cc1ccc(-n2cncn2)cc1 (single isomer, unassigned) [Example 22b, (3-(4-(1H-1,2,4-Triazol-1-yl)benzyl)-4-chloro-2-methoxyquinolin-6-yl)(2,6-dimethylpyridin-3-yl)(1-methyl-1H-1,2,3-triazol-5-yl)methanol] | – | – | 480 nM | 790 nM | 97% | –
12 | Cn1cncc1C(O)(c1ccc(Cl)cc1)c1ccc2nc(C(F)(F)F)c(Cc3ccccc3)c(Cl)c2c1 (stereo not drawn) [Example 100, (3-benzyl-4-chloro-2-(trifluoromethyl)quinolin-6-yl)(4-chlorophenyl)(1-methyl-1H-imidazol-5-yl)methanol•TFA] | – | – | 25 nM | 220 nM | 78% | –
